Test results published in US20120328628A1, “ANTIBODIES TO CONFORMATIONALLY TRAPPED PROTEINS” (The Regents of the University of California, priority 2006, published 2012).

Target: T1, wild-type caspase-1 (Homo sapiens, UniProt P29466)
T1 construct: single site alanine mutants for each of these residues in either the p10 or p20 subunit; made in house; E. coli is printed only for caspase-4/-5 made by the caspase-1 procedure
T1 sequence (P29466 120-297 limits assumed): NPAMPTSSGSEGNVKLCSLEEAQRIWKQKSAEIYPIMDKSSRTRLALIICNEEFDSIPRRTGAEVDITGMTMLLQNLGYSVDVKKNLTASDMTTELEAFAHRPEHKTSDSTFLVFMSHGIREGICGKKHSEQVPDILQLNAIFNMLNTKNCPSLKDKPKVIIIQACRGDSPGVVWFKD
T1 sequence (P29466 317-404 limits assumed): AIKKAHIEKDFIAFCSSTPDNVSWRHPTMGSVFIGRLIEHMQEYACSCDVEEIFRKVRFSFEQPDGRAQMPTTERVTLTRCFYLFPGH
Test: Titration of wild-type caspase-1 with z-VAD-FMK
Assay type: biochemical
Source text: To test this, wild-type caspase-1 was titrated with inhibitor and found to produce a 2-fold activation when one reaches 0.2 equivalents of z-VAD-FMK. […] If the inhibitor labeled in a non-cooperative fashion we would expect that it would reach an optimum upon addition of about 0.5 equivalents and would cause a […] activation as half of the sites are inactivated. The fact this maxima is below 0.5 equivalents and is less than […] probably reflects that labeling is cooperative too. […] Thus, we have developed a second assay for evaluating the active site coupling.

z-VAD-FMK
activation of wild-type caspase-1 (0.2 equivalents of inhibitor): 2 fold | inhibition of wild-type caspase-1 (approaching one equivalent of inhibitor): complete inhibition
